Test results: patent US20250304576A1 (Cancer Research Technology Limited, priority 2022, published 2025)

Legend:
[1] = molecular target: T1, Recombinant IKKα (Homo sapiens, UniProt O15111); assay: DELFIA IKKα kinase assay (apparent Ki, Cheng-Prusoff); assay type: biochemical
T1 construct: purchased Millipore, Dundee, UK
T1 sequence (O15111 1-745): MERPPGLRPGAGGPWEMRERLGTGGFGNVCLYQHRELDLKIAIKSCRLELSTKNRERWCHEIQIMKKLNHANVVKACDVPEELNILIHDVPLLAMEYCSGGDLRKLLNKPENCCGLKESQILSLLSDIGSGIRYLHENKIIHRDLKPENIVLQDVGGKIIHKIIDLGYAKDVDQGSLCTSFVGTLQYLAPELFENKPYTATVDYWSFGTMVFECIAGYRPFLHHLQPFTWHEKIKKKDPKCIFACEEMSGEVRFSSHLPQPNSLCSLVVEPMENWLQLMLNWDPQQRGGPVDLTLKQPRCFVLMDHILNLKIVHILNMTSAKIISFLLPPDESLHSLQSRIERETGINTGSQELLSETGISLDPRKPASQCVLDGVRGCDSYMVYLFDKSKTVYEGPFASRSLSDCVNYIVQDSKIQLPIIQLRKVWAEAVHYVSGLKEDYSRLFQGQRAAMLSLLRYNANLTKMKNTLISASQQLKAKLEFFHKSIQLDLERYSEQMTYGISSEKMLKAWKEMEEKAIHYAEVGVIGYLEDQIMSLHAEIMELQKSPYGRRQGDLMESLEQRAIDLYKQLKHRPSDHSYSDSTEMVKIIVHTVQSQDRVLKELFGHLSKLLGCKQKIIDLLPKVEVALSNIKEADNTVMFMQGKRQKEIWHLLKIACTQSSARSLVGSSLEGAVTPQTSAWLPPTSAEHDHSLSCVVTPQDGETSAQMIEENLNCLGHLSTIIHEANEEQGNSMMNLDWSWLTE
Outline: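 DELFIA time-resolved fluorescence (ex 340/em 615 nm) quantified phosphorylation of a biotinylated IκB-α Ser32 peptide (0.375 μM) by 37 nM recombinant IKKα or IKKβ. Reactions used 40 μM ATP, Tris pH 7.5 buffer with MgCl2, DTT and BSA, 60 min at 30° C. Cheng-Prusoff equation gave apparent Ki.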

[2] = molecular target: T2, CHUK (IKK alpha) (Homo sapiens, UniProt O15111); assay: Adapta IKKα assay (TR-FRET ADP formation, Life Technologies); assay type: biochemical
T2 construct: purchased Life Technologies (assay performed by the vendor)
T2 sequence (O15111 1-745): T1 sequence (O15111 1-745)
Method: IKKα and IKKβ inhibitory activity was determined using three different assays: a dissociation enhanced ligand fluorescent immunoassay (DELFIA) based on the protocol of HTScan™ IKKβ Kinase Assay (Cell Signaling Technology, USA); an Adapta IKKα assay (performed by Life Technologies); a Z′-LYTE™ IKKβ assay (performed by Life Technologies).
The reaction was performed in low-volume white 384-well plates (Corning model 4512).
The test compounds were screened in 1% DMSO (final) in the well. For 10 point titrations, 3-fold serial dilutions were conducted from the starting concentration of 50 mM.
The 2× CHUK (IKK alpha) kinase was prepared in 50 mM HEPES pH 7.5, 0.01% BRIJ-35, 10 mM MgCl2 and 1 mM EGTA. The final 10 μL kinase mixture consisted of 50-250 ng CHUK (IKK alpha) in 32.5 mM HEPES pH 7.5, 0.005% BRIJ-35, 5 mM MgCl2 and 0.5 mM EGTA. No substrate was required, as the assay measures the ability of a compound to inhibit the kinase's intrinsic ATPase activity.
5 μL of 2× Kinase mixture was incubated with 2.5 μL of ATP solution diluted to a 4×working concentration in water, in the presence of 100 nL of 100× test compound in 100% DMSO and 2.4 μL of 30 mM HEPES buffer.
After 30-second plate shake and 1-minute centrifuge at 1000×g, the resulting kinase reaction was allowed to incubate for 1 hour at room temperature before 5 μL of Detection Mix was added.
The Detection Mix, previously prepared in TR-FRET Dilution Buffer, consisted of EDTA (30 mM), Eu-anti-ADP antibody (6 nM) and an Alexa Fluor™ 647 labelled ADP tracer. The Detection Mix contained the EC60 concentration of tracer for 5-150 μM ATP.
After 30-second plate shake and 1-minute centrifuge at 1000×g, the Detection Mix was allowed to equilibrate at room temperature for 1 hour. Then the plate was read using a fluorescence plate reader configured for Adapta™ TR-FRET and the data analysed.
ADP formation was determined by calculating the emission ratio from the assay well. Therefore, the emission ratio was calculated by dividing the intensity of the tracer (acceptor) emission by the intensity of the Eu (donor) emission at 615 nm as shown in the equation below.
The IKKα and IKKb figures quoted in italicised form are from the Adapta assay described above.

[3] = non-italicised figure: DELFIA assay
[4] = DELFIA assay (first line of an example)
[5] = Adapta assay (second line of an example)

| Ki [1, 3] | IC50 ([2]; Adapta assay) | Ki [1, 4] | IC50 [2, 5] | Compound |
| --- | --- | --- | --- | --- |
| 0.35 µM | 0.021 µM |  |  | Nc1nccc(-c2ccc3[nH]nc(N)c3c2)c1C#CCCCN1CCOCC1 [Example 96, 5-(2-Amino-3-(5-morpholinopent-1-yn-1-yl)pyridin-4-yl)-1H-indazol-3-amine] |
| 0.01 µM | 0.001 µM |  |  | Nc1nccc(-c2ccc3[nH]nc(N)c3c2)c1C#Cc1ccccc1 [Example 75, 5-(2-Amino-3-(phenylethynyl)pyridine-4-yl)-1H-indazol-3-amine] |
| 0.006 µM | 0.001 µM |  |  | CC(C)(C)C#Cc1c(-c2ccc3[nH]nc(N)c3c2)ccnc1N [Example 72, 5-(2-Amino-3-(3,3-dimethylbut-1-yn-1-yl)pyridine-4-yl)-1H-indazol-3-amine] |
| 0.001 µM | 0.001 µM |  |  | Nc1nccc(-c2ccc3[nH]nc(N)c3c2)c1C#CCCO [Example 84, 4-(2-Amino-4-(3-amino-1H-indazol-5-yl)pyridine-3-yl)but-3-yn-1-ol] |
| 0.012 µM | 0.003 µM |  |  | Nc1nccc(-c2ccc3[nH]nc(N)c3c2)c1C#CC1CCCCC1 [Example 74, 5-(2-Amino-3-(cyclohexylethynyl)pyridine-4-yl)-1H-indazol-3-amine] |
|  |  | 0.058 µM | 0.002 µM | CC(C)(C)Cc1cc2c(-c3ccc4[nH]nc(N)c4c3)ccnc2[nH]1 [Example 220, 5-(2-Neopentyl-1H-pyrrolo[2,3-b]pyridin-4-yl)-1H-indazol-3-amine] |
| 0.007 µM | 0.006 µM |  |  | CC(C)(N)C#Cc1c(-c2ccc3[nH]nc(N)c3c2)ccnc1N [Example 92, 5-(2-Amino-3-(3-amino-3-methylbut-1-yn-1-yl)pyridin-4-yl)-1H-indazol-3-amine] |
| 0.006 µM | 0.001 µM |  |  | Nc1nccc(-c2ccc3[nH]nc(N)c3c2)c1C#CCO [Example 83, 3-(2-Amino-4-(3-amino-1H-indazol-5-yl)pyridine-3-yl)prop-2-yn-1-ol] |
| 0.015 µM | 0.003 µM |  |  | Nc1nccc(-c2ccc3[nH]nc(N)c3c2)c1C#CCCC(=O)N1CCOCC1 [Example 99, 5-(2-Amino-4-(3-amino-1H-indazol-5-yl)pyridine-3-yl)-1-morpholinopent-4-yn-1-one] |
| 0.032 µM | 0.007 µM |  |  | Nc1nccc(-c2ccc3[nH]nc(N)c3c2)c1C#CCCN1CCCCC1 [Example 93, 5-(2-Amino-3-(4-(piperidin-1-yl)but-1-yn-1-yl)pyridin-4-yl)-1H-indazol-3-amine] |

More lines, now with the values behind:

| Compound | Ki [1, 3] | IC50 ([2]; Adapta assay) | Ki [1, 4] | IC50 [2, 5] |
| --- | --- | --- | --- | --- |
| Nc1n[nH]c2ccc(-c3ccnc4[nH]c(C(=O)N5CCCC5)cc34)cc12 [Example 234, (4-(3-Amino-1H-indazol-5-yl)-1H-pyrrolo[2,3-b]pyridin-2-yl)(pyrrolidin-1-yl)methanone] |  |  | 0.019 µM | 0.032 µM |
| Nc1n[nH]c2c(C#CC3CC3)cc(-c3ccnc4[nH]ccc34)cc12 [Example 202, 7-(Cyclopropylethynyl)-5-(1H-pyrrolo[2,3-b]pyridin-4-yl)-1H-indazol-3-amine] |  |  | 0.013 µM | 0.002 µM |
| Nc1n[nH]c2ccc(-c3ccnc4[nH]c(CN5CCC(F)(F)CC5)cc34)cc12 [Example 261, 5-(2-((4,4-Difluoropiperidin-1-yl)methyl)-1H-pyrrolo[2,3-b]pyridine-4-yl)-1H-indazol-3-amine] |  |  | 0.049 µM | 0.011 µM |
| Nc1n[nH]c2ccc(-c3ccnc4[nH]c(CCC5CCCCC5)cc34)cc12 [Example 222, 5-(2-(2-Cyclohexylethyl)-1H-pyrrolo[2,3-b]pyridin-4-yl)-1H-indazol-3-amine] |  |  | 0.019 µM | 0.026 µM |
| CN1CCCN(Cc2cc3c(-c4ccc5[nH]nc(N)c5c4)ccnc3[nH]2)CC1 [Example 266, 5-(2-((4-Methyl-1,4-diazepan-1-yl)methyl)-1H-pyrrolo[2,3-b]pyridin-4-yl)-1H-indazol-3-amine] |  |  | 0.046 µM | 0.011 µM |
| Nc1n[nH]c2c(C#CCCCN3CCCCC3)cc(-c3ccnc4[nH]ccc34)cc12 [Example 212, 7-(5-(Piperidin-1-yl)pent-1-yn-1-yl)-5-(1H-pyrrolo[2,3-b]pyridin-4-yl)-1H-indazol-3-amine] |  |  | 0.03 µM | 0.012 µM |
| CC(C)(O)C#Cc1cc(-c2ccnc(N)c2)cc2c(N)n[nH]c12 [Example 140, 4-(3-Amino-5-(2-aminopyridin-4-yl)-1H-indazol-7-yl)-2-methylbut-3-yn-2-ol] | 0.281 µM | 0.039 µM |  |  |
| C#Cc1cc(-c2ccnc3[nH]ccc23)cc2c(N)n[nH]c12 [Example 200, 7-Ethynyl-5-(1H-pyrrolo[2,3-b]pyridin-4-yl)-1H-indazol-3-amine] |  |  | 0.026 µM | 0.0033 µM |
| CC(C)(C)C#Cc1cc(-c2ccnc3[nH]ccc23)cc2c(N)n[nH]c12 [Example 201, 7-(3,3-Dimethylbut-1-yn-1-yl)-5-(1H-pyrrolo[2,3-b]pyridin-4-yl)-1H-indazol-3-amine] |  |  | 0.062 µM | 0.011 µM |
| CC(C)(C)OCC#Cc1c(-c2ccc3[nH]nc(N)c3c2)ccnc1N [Example 88, 5-(2-Amino-3-(3-(tert-butoxy)prop-1-yn-1-yl)pyridine-4-yl)-1H-indazol-3-amine] | 0.133 µM | 0.008 µM |  |  |
| CC(C)(C)OCc1cc2c(-c3ccc4[nH]nc(N)c4c3)ccnc2[nH]1 [Example 227, 5-(2-(tert-Butoxymethyl)-1H-pyrrolo[2,3-b]pyridin-4-yl)-1H-indazol-3-amine] |  |  | 0.029 µM | 0.002 µM |
| CC(C)(C)NCc1cc2c(-c3ccc4[nH]nc(N)c4c3)ccnc2[nH]1 [Example 248, 5-(2-((tert-Butylamino)methyl)-1H-pyrrolo[2,3-b]pyridine-4-yl)-1H-indazol-3-amine] |  |  | 0.202 µM | 0.034 µM |
| Nc1n[nH]c2ccc(-c3ccnc4[nH]c(CC5CCOCC5)cc34)cc12 [Example 230, 5-(2-((tetrahydro-2H-pyran-4-yl)methyl)-1H-pyrrolo[2,3-b]pyridin-4-yl)-1H-indazol-3-amine] |  |  | 0.011 µM | 0.001 µM |
| Nc1n[nH]c2ccc(-c3ccnc4[nH]c(C(=O)NC5CCCCC5)cc34)cc12 [Example 236, 4-(3-Amino-1H-indazol-5-yl)-N-cyclohexyl-1H-pyrrolo[2,3-b]pyridine-2-carboxamide] |  |  | 0.01 µM | 0.002 µM |
| Nc1n[nH]c2ccc(-c3ccnc4[nH]c(CO)cc34)cc12 [Example 224] |  |  | 0.005 µM | 0.001 µM |
| Nc1n[nH]c2c(C#CCCCN3CCOCC3)cc(-c3ccnc4[nH]ccc34)cc12 [Example 210, 7-(5-Morpholinopent-1-yn-1-yl)-5-(1H-pyrrolo[2,3-b]pyridin-4-yl)-1H-indazol-3-amine] |  |  | 0.023 µM | 0.027 µM |
| Nc1n[nH]c2ccc(-c3ccnc4[nH]c(CCCN5CCCCC5)cc34)cc12 [Example 269, 5-(2-(3-(Piperidin-1-yl)propyl)-1H-pyrrolo[2,3-b]pyridin-4-yl)-1H-indazol-3-amine] |  |  | 0.011 µM | 0.004 µM |
| Nc1n[nH]c2ccc(-c3ccnc4[nH]c(CN5CCCCC5)cc34)cc12 [Example 260, 5-(2-(Piperidin-1-ylmethyl)-1H-pyrrolo[2,3-b]pyridine-4-yl)-1H-indazol-3-amine] |  |  | 0.091 µM | 0.027 µM |
